Data as given in patent publication US7671230B2, “Derivatization and solubilization of insoluble classes of fullerenes” (TDA Research, Inc., priority 2001, dated 2010).
Each block holds one substance with its values, some of them ahead of it.

Key:
[1] = Solubility of fullerenic species and their derivatives in solvents; assay type: physicochemical; settings: for solubility of derivative in organic solvents: common polar and non-polar organic solvents; for solubility class: both non-polar and polar solvents
Description: Insoluble fullerenes are any fullerenic species generated by any known method which are not soluble in solvents (common solvents, i.e., non-polar organic solvents, such as hydrocarbons and arenes and halogenated arenes, including toluene, benzene) commonly employed to solublize fullerenes, such as C60. Solubility (or lack thereof) of a given fullerenic species in a given solvent can be assessed by methods known in the art, e.g., by assessing how much of a fullerenic species can be extracted into a given amount of solvent, for example, using mass spectrometric methods as illustrated herein. The insoluble classes of fullerenes are also insoluble in polar solvents. […] Non-derivatized fullerenic species are in general not soluble in almost all polar solvents. However, fullerenic species, if soluble have an anomalously high solubility in polar chloro and bromo substituted arenes. As discussed herein and as is understood in the art certain classes of non-derivatized fullerenic species are soluble in non-polar solvents such as toluene and benzene.
The methods of this invention can be used to derivatize insoluble fullerenic species and related carbon nanotube species to make them soluble (or to enhance the solubility of given fullerenic species or carbon nanotubes). Derivatization reaction of this invention may render the derivatized species soluble (or enhance its solubility) in common non-polar solvents or it may render the derivatized species soluble (or enhance its solubility) in polar solvents. For purposes of this application, solubility is defined as the dissolution of free molecules (or salts) in the solvent with reversibility to remove the solvent to obtain the molecules (or salts) dissolved. In preferred cases, the solvent is readily removed by application of reduced pressure and/ or by non-destructive heating. A species may also be removed from solution by recrystallization, for example by addition of solvent in which the species is not soluble to the solution. Certain solvents may readily dissolve a given species, but may not be removable to regenerate the species that was dissolved or it may not be possible to recrystallize the species unchanged. For example, the solvent may only be partially removable or the solvent may have reacted with the species causing a chemical change or irreversible adduct formation.
In general, fullerenes have “low solubility” in all solvents compared to most organic compounds. […] C60 is insoluble in polar solvents like acetonitrile and methanol (no measurable amount dissolves). […] C60 is soluble in substituted naphthalenes (30 to 50 mg/mL). […] As noted above, insoluble classes of fullerenic species are also insoluble in polar solvents.

[2] = Air/water stability of derivatized materials (long-term stability of solutions, re-dissolution of exposed solids); assay type: physicochemical; settings: presence of oxygen and/or water; no evidence for decomposition over several months time
[3] = Aqueous-phase size-exclusion chromatography (SEC-HPLC), aggregation; assay type: physicochemical
Method: This derivatized metallofullerene, Gd@C60(C(COOCH2CH3)2)x, can be converted to a water-soluble species by de-esterification to carboxylic acid or carboxylate salt groups. This is performed by the method of Hirsch (Lamparth, 1994). The ester derivative (100 mg) is dissolved in toluene (15 mL) and vigorously stirred at reflux with excess solid NaH (100 mg) under argon for 2-3 hours. Next, methanol (3 mL) is added with stirring. Vigorous bubbling is observed, followed by precipitation of the sodium carboxylate salt of the Gd@C60 derivative. The solid is isolated, dissolved in water, and partially purified with dialysis tubing (MW cutoff˜500). The water is removed from an aqueous solution of the carboxylate with a rotary evaporator connected to a vacuum source; it is important to avoid decarboxylation by heating gently (<50° C.). Lowering the pH of aqueous solutions of the carboxylate salt can produce the acid form, which may have less water solubility depending on the number of acid groups present. […] Ion-exchange resin (Dowex-50, etc. etc.) can be used to change the counterion in Gd@C60(C(COONa)2)x to other alkali metals etc. or to hydrogen (proton) i.e. Gd@C60(C(COOH)2)x.

[4] = aqueous; compared with conventional inorganic chelates; cited from earlier work

- stability in air / oxygen and water [2]: air-stable
Substance: Gd@C60(C(COOH)2)x

- solubility class [1]: Slightly Soluble
Substance: Gd@C82

- solubility in THF after derivatization ([1]; tetrahydrofuran): soluble
Substance: ^166Ho@C60(C(COOCH2CH3)2)x

The remaining lines, values behind:

Substance: C60(C33H48O12)
- solubility of derivative in organic solvents [1]: solubility in a variety of common polar and non-polar organic solvents

Substance: Gd@C60
- solubility class [1]: Insoluble

Substance: Gd@C60(C(COOCH2CH3)2)x
- solubility of derivative in organic solvents [1]: solubility in a variety of common polar and non-polar organic solvents
- stability in air / oxygen and water [2]: air-stable

Substance: Gd@C60(C(COONa)2)x
- water solubility [1]: fully water-soluble
- stability in air / oxygen and water [2]: air-stable
- aggregation state in aqueous solution [3]: not clustered in large aggregates

Substance: Gd@C82(OH)x
- R1 relaxivity [4]: higher R1 values

Substance: ^166Ho@C60(C(COONa)2)x
- water solubility [1]: water soluble
